Data taken from ChEMBL document CHEMBL1201862, “PubChem BioAssay data set” (2004).
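All cell lines were grown in 96-well plates and treated with compound for 48 hours. GI50: concentration for 50% inhibition of growth.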 Activity calls are given as the source filed them. Rule as the data show it: active = GI50 up to about 1.1 µM and inactive = higher.

Tests used:
Assay in all cases: NCI tumour cell line growth inhibition, 48 h
[1] = system: RXF 393
[2] = system: PC-3
[3] = system: A549
[4] = system: HCC 2998
[5] = system: TK-10
[6] = system: SK-MEL-28
[7] = system: DU-145
[8] = system: MDA-MB-435
[9] = system: UO-31
[10] = system: NCI-H522
[11] = system: SK-MEL-5
[12] = system: HCT-116
[13] = system: IGROV-1
[14] = system: UACC-257
[15] = system: ACHN
[16] = system: BT-549
[17] = system: HOP-92
[18] = system: M14
[19] = system: SNB-19
[20] = system: OVCAR-8

Row | Compound | GI50 [1] | GI50 [2] | GI50 [3] | GI50 [4] | GI50 [5] | GI50 [6] | GI50 [7] | GI50 [8] | GI50 [9] | GI50 [10] | GI50 [11] | GI50 [12] | GI50 [13] | GI50 [14] | GI50 [15] | GI50 [16] | GI50 [17] | GI50 [18] | GI50 [19] | GI50 [20]
1 | O=C1CN(c2ccccc2)Cc2nc(Cl)ccc2N1 | 25.6 µM (inactive) | 79.4 µM (inactive) | > 100 µM (inactive) | > 100 µM (inactive) | > 100 µM (inactive) | > 100 µM (inactive) | > 100 µM (inactive) | > 100 µM (inactive) | > 100 µM (inactive) | > 100 µM (inactive) | > 100 µM (inactive) | > 100 µM (inactive) | > 100 µM (inactive) | > 100 µM (inactive) | > 100 µM (inactive) | > 100 µM (inactive) | 57.4 µM (inactive) | > 100 µM (inactive) | > 100 µM (inactive) | > 100 µM (inactive)
2 | O=C(O)CCC(=O)c1ccc2ccc3cccc4ccc1c2c34 | 46.5 µM (inactive) | 67.9 µM (inactive) | 62.2 µM (inactive) | 21.4 µM (inactive) | 49.1 µM (inactive) | 87.3 µM (inactive) | > 100 µM (inactive) | 98.2 µM (inactive) | 94.6 µM (inactive) | 83.8 µM (inactive) | 58.6 µM (inactive) | 65.8 µM (inactive) | 70.3 µM (inactive) | 33 µM (inactive) | 52.7 µM (inactive) | 63.2 µM (inactive) | > 100 µM (inactive) | > 100 µM (inactive) | 92.9 µM (inactive) | 66.7 µM (inactive)
3 | COc1ccc(OC)c([N+](=O)[O-])c1-c1nc2sc(C)c(C)n2c1/C=N/N=C(N)N | > 100 µM (inactive) | 40.8 µM (inactive) | > 100 µM (inactive) | 46.3 µM (inactive) | > 100 µM (inactive) | 54.5 µM (inactive) | > 100 µM (inactive) | 43.1 µM (inactive) | > 100 µM (inactive) | 41.8 µM (inactive) | 34.5 µM (inactive) | > 100 µM (inactive) | 27.3 µM (inactive) | > 100 µM (inactive) | > 100 µM (inactive) | 25.9 µM (inactive) | 61 µM (inactive) | 76.7 µM (inactive) | 36.3 µM (inactive) | > 100 µM (inactive)
4 | COC(=O)c1ccccc1C1CN=NC12Cc1ccc(C)c(C)c1C2=O (stereo not given) | 76.4 µM (inactive) | 50.8 µM (inactive) | 57.5 µM (inactive) | 68.9 µM (inactive) | 56.2 µM (inactive) | > 100 µM (inactive) | > 100 µM (inactive) | 64.3 µM (inactive) | 93.8 µM (inactive) | 6.84 µM (inactive) | 21.6 µM (inactive) | 29.6 µM (inactive) | > 100 µM (inactive) | 25.8 µM (inactive) | > 100 µM (inactive) | > 100 µM (inactive) | 28.2 µM (inactive) | 62.7 µM (inactive) | > 100 µM (inactive) | > 100 µM (inactive)
5 | O=C(O)c1ccc(C(=O)c2ccccc2C(=O)O)cc1C(=O)O | > 100 µM (inactive) | > 100 µM (inactive) | > 100 µM (inactive) | > 100 µM (inactive) | > 100 µM (inactive) | > 100 µM (inactive) | > 100 µM (inactive) | > 100 µM (inactive) | > 100 µM (inactive) | > 100 µM (inactive) | > 100 µM (inactive) | > 100 µM (inactive) | > 100 µM (inactive) | > 100 µM (inactive) | > 100 µM (inactive) | > 100 µM (inactive) | > 100 µM (inactive) | > 100 µM (inactive) | > 100 µM (inactive) | > 100 µM (inactive)
6 | CCOC(=O)c1cn2c(n1)sc1cc(C)c(C)cc12 | 22.1 µM (inactive) | 21.2 µM (inactive) | 18.9 µM (inactive) | 66.1 µM (inactive) | 24.6 µM (inactive) | 19.2 µM (inactive) | 21.4 µM (inactive) | 20.3 µM (inactive) | 18.8 µM (inactive) | 31 µM (inactive) | 16.5 µM (inactive) | 17.9 µM (inactive) | 23 µM (inactive) | 31.8 µM (inactive) | 19.1 µM (inactive) | 28.7 µM (inactive) | 25.4 µM (inactive) | 26.5 µM (inactive) | 20 µM (inactive) | 24.2 µM (inactive)
7 | CN(C)[C@@H]1C(O)=C(C(=O)NCNc2nc3[nH]nnc3c(=O)[nH]2)C(=O)[C@@]2(O)C(O)=C3C(=O)c4c(O)cccc4[C@@](C)(O)[C@H]3C[C@@H]12 | 0.518 µM (active) | 3.42 µM (inactive) | 55.3 µM (inactive) | 64 µM (inactive) | 2.3 µM (inactive) | 1.33 µM (inactive) | 1.27 µM (inactive) | 0.452 µM (active) | 0.358 µM (active) | 20.4 µM (inactive) | 1.9 µM (inactive) | 1.21 µM (inactive) | 15.9 µM (inactive) | 1.28 µM (inactive) | 31.5 µM (inactive) | 6.7 µM (inactive) | 1.3 µM (inactive) | 0.557 µM (active) | 86.1 µM (inactive) | 0.817 µM (active)
8 | C=CCOc1ccc(C(=N/NC(=O)c2ccccc2)/N=N/c2ccc([N+](=O)[O-])cc2)cc1OC | > 100 µM (inactive) | > 100 µM (inactive) | > 100 µM (inactive) | 74.1 µM (inactive) | > 100 µM (inactive) | > 100 µM (inactive) | 77.4 µM (inactive) | > 100 µM (inactive) | > 100 µM (inactive) | > 100 µM (inactive) | 76.6 µM (inactive) | 58.6 µM (inactive) | > 100 µM (inactive) | > 100 µM (inactive) | > 100 µM (inactive) | > 100 µM (inactive) | 18.6 µM (inactive) | > 100 µM (inactive) | > 100 µM (inactive) | > 100 µM (inactive)
9 | CC(C)=CCC/C(=C\CC/C(=C\CCc1ccoc1)C(=O)O)C(=O)O | > 100 µM (inactive) | > 100 µM (inactive) | > 100 µM (inactive) | > 100 µM (inactive) | > 100 µM (inactive) | > 100 µM (inactive) | > 100 µM (inactive) | > 100 µM (inactive) | > 100 µM (inactive) | > 100 µM (inactive) | > 100 µM (inactive) | > 100 µM (inactive) | > 100 µM (inactive) | > 100 µM (inactive) | > 100 µM (inactive) | > 100 µM (inactive) | > 100 µM (inactive) | > 100 µM (inactive) | > 100 µM (inactive) | > 100 µM (inactive)
10 | NC1CCC(c2cc3ccccc3s2)(N2CCCCC2)CC1 (stereo not given) | 6.01 µM (inactive) | 1.55 µM (inactive) | 1.77 µM (inactive) | 1.04 µM (active) | 5.78 µM (inactive) | 1.58 µM (inactive) | 4.67 µM (inactive) | 1.35 µM (inactive) | 2.31 µM (inactive) | 1.76 µM (inactive) | 2.08 µM (inactive) | 1.69 µM (inactive) | 1.66 µM (inactive) | 1.62 µM (inactive) | 3.41 µM (inactive) | 1.21 µM (inactive) | 0.489 µM (active) | 1.54 µM (inactive) | 12.5 µM (inactive) | 1.72 µM (inactive)
